Columns and labels:
Assay in all cases: relative viability (nuclei count vs DMSO), 5 days (fraction); higher = more cells survive
XMD8-85 + Decitabine = compound: CN1CCN(CC1)C2=CC(=C(C=C2)NC3=NC=C4C(=N3)N(C5=CC=CC=C5C(=O)N4C)C)OC [XMD8-85] + Nc1ncn([C@H]2C[C@H](O)[C@@H](CO)O2)c(=O)n1 [Decitabine] (partner 2 µM)
How it was run: (§1)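 Each reported value is a median over duplicate plates. It expresses relative viability: treated-well nuclei count divided by vehicle-well nuclei count. Lung cancer cell lines in 1536-well plates were dosed by pin tool a day after seeding, alone with one drug or with a fixed anchor-drug dose plus five library-drug doses (not always all listed) in √10 steps, and nuclei were counted after 5 days.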

4EGI-1 + Tozasertib = compound: O=C(O)C(Cc1ccccc1[N+](=O)[O-])=NNc1nc(-c2ccc(Cl)c(Cl)c2)cs1 (mixture of isomers) [4EGI-1] + Cc1cc(Nc2cc(N3CCN(C)CC3)nc(Sc3ccc(NC(=O)C4CC4)cc3)n2)n[nH]1 [Tozasertib] (partner 0.1 µM)
How it was run: as §1

XMD8-85 + Crizotinib = compound: CN1CCN(CC1)C2=CC(=C(C=C2)NC3=NC=C4C(=N3)N(C5=CC=CC=C5C(=O)N4C)C)OC [XMD8-85] + C[C@@H](Oc1cc(-c2cnn(C3CCNCC3)c2)cnc1N)c1c(Cl)ccc(F)c1Cl [Crizotinib] (partner 1 µM)
How it was run: as §1

4EGI-1 + Vorinostat = compound: O=C(O)C(Cc1ccccc1[N+](=O)[O-])=NNc1nc(-c2ccc(Cl)c(Cl)c2)cs1 (mixture of isomers) [4EGI-1] + O=C(CCCCCCC(=O)Nc1ccccc1)NO [Vorinostat] (partner 1 µM)
How it was run: as §1

| Cell Line | relative viability (XMD8-85 + Decitabine; first compound 0.08 µM) | relative viability (XMD8-85 + Decitabine; first compound 0.253 µM) | relative viability (XMD8-85 + Decitabine; first compound 0.8 µM) | relative viability (XMD8-85 + Decitabine; first compound 2.53 µM) | relative viability (XMD8-85 + Decitabine; first compound 8 µM) | relative viability (4EGI-1 + Tozasertib; first compound 0.5 µM) | relative viability (4EGI-1 + Tozasertib; first compound 5 µM) | relative viability (4EGI-1 + Tozasertib; first compound 15.81 µM) | relative viability (4EGI-1 + Tozasertib; first compound 50 µM) | relative viability (XMD8-85 + Crizotinib; first compound 0.08 µM) | relative viability (XMD8-85 + Crizotinib; first compound 0.253 µM) | relative viability (XMD8-85 + Crizotinib; first compound 0.8 µM) | relative viability (XMD8-85 + Crizotinib; first compound 2.53 µM) | relative viability (XMD8-85 + Crizotinib; first compound 8 µM) | relative viability (4EGI-1 + Vorinostat; first compound 0.5 µM) | relative viability (4EGI-1 + Vorinostat; first compound 1.581 µM) | relative viability (4EGI-1 + Vorinostat; first compound 5 µM) | relative viability (4EGI-1 + Vorinostat; first compound 15.81 µM) | relative viability (4EGI-1 + Vorinostat; first compound 50 µM) | relative viability (4EGI-1 + Tozasertib; first compound 1.581 µM) |
| --- | --- | --- | --- | --- | --- | --- | --- | --- | --- | --- | --- | --- | --- | --- | --- | --- | --- | --- | --- | --- |
| LK-2 | 0.255 | 0.295 | 0.268 | 0.246 | 0.232 | 0.193 | 0.199 | 0.151 | 0.151 | 0.232 | 0.244 | 0.201 | 0.226 | 0.262 | 0.314 | 0.174 | 0.337 | 0.354 | 0.236 | – |
| H3255 | 0.838 | 0.682 | 0.977 | 0.316 | 0.358 | 0.789 | 0.726 | 0.571 | 0.551 | 0.808 | 0.853 | 0.822 | 0.902 | 0.52 | 0.792 | – | 0.77 | – | 0.735 | 0.43 |
| NCI-H2087 | 0.311 | 0.262 | 0.297 | 0.32 | 0.195 | 0.272 | 0.227 | 0.164 | 0.167 | 0.821 | 0.857 | 0.994 | 0.994 | 0.674 | 0.694 | 0.958 | 0.724 | 0.995 | 0.343 | 0.261 |
| EMC-BAC-2 | 0.873 | 0.961 | – | 1.05 | 0.887 | 0.324 | 0.329 | 0.312 | 0.26 | 0.748 | – | 0.794 | 0.662 | 0.72 | 0.472 | – | 0.634 | 0.318 | 0.168 | 0.262 |
| NCI-H2126 | 0.647 | 0.578 | 0.562 | 0.57 | 0.562 | 1 | 0.861 | 0.822 | 0.741 | 1.02 | 0.974 | 1.02 | 1.06 | 1 | 0.756 | 0.773 | 0.819 | 0.539 | 0.646 | – |
| NCI-H441 | 0.256 | 0.245 | 0.256 | 0.261 | 0.205 | 0.688 | 0.574 | 0.541 | 0.284 | 0.592 | 0.648 | 0.89 | 0.931 | 0.485 | 0.727 | 0.909 | 0.75 | 0.641 | 0.414 | 0.538 |
| HCC-366 | 0.342 | 0.302 | 0.375 | 0.511 | 0.393 | 0.131 | 0.0608 | 0.0943 | 0.0321 | 0.388 | – | 0.586 | 0.481 | 0.136 | 0.469 | 0.149 | 0.431 | 0.34 | 0.0704 | 0.0938 |
| NCI-H520 | – | 0.506 | 0.496 | 0.528 | 0.429 | 0.47 | 0.499 | 0.385 | 0.371 | 0.796 | 0.572 | 0.914 | 0.673 | 0.324 | 0.877 | 0.73 | 0.887 | 0.773 | 0.153 | 0.496 |
| HCC-44 | 0.976 | 0.979 | 0.922 | 0.973 | 0.887 | 0.971 | 0.946 | 0.384 | 0.282 | 0.795 | 0.769 | 0.821 | 0.802 | 0.301 | 1.06 | 0.872 | 0.988 | 0.916 | 0.566 | – |
| BEN | 0.761 | 0.671 | 0.757 | 0.66 | 0.483 | 0.631 | 0.53 | 0.475 | 0.461 | 0.744 | 0.865 | – | 0.608 | 0.447 | 0.63 | 0.599 | 0.589 | 0.557 | 0.442 | 0.626 |
| HARA | 0.657 | 0.647 | 0.407 | 0.659 | 0.416 | 0.129 | 0.101 | 0.105 | 0.0717 | 1.21 | 0.885 | 1.3 | 0.94 | 0.417 | 0.545 | 0.429 | 0.525 | 0.47 | 0.127 | 0.121 |
| NCI-H2085 | 0.546 | 0.529 | 0.538 | 0.535 | 0.517 | 0.835 | 0.836 | 0.724 | 0.775 | 0.76 | 0.738 | 0.795 | 0.859 | 0.559 | 0.922 | 0.815 | 0.823 | 0.598 | 0.295 | 0.859 |
| NCI-H838 | 0.572 | 0.46 | 0.476 | 0.449 | 0.354 | 0.261 | 0.263 | 0.235 | 0.172 | 0.774 | 0.808 | 1.07 | 0.815 | 0.292 | 0.724 | 0.732 | 0.738 | 0.605 | 0.263 | – |
| NCI-H647 | 0.43 | 0.357 | 0.417 | 0.45 | 0.327 | 0.262 | 0.35 | 0.199 | 0.133 | 1.12 | 1.1 | 1.05 | 1.14 | 0.213 | 0.837 | 0.53 | 0.689 | 0.477 | 0.0731 | – |
| NCI-H1651 | 0.595 | 0.592 | 0.601 | 0.67 | 0.506 | 0.704 | 0.678 | 0.383 | 0.372 | 0.924 | 0.855 | 0.822 | 0.836 | 0.772 | 0.523 | 0.477 | 0.629 | 0.481 | 0.408 | 0.518 |
| NCI-H322M | 0.688 | 0.659 | 0.707 | 0.644 | 0.606 | 0.457 | 0.509 | 0.469 | 0.29 | 0.872 | 1.03 | 0.929 | 0.996 | 0.55 | 0.998 | – | 1.05 | 0.8 | 0.482 | – |

From the supplement of paper PMC10307832
